From US20250092437A1, “DISEASE DETECTION WITH COMBINATORIAL BIOMARKERS” (priority 2021, published 2025)
Primed or numbered codes have the meaning given here. Ends that are not written are not given here. PEG2′ = not defined here

Columns and labels:
[1] = tested on: proteolytic cleavage of Probe #102 (cathepsin L, CTSL); assay: protease inhibitor profiling of Probe #102 cleavage in NASH and healthy plasma; assay type: biochemical, mice; conditions: for effect on Probe #102 signal: NASH and healthy plasma
Method: For this experiment, all plasma samples were prepared individually and diluted 1/10e in PBS with inhibitor added directly to the samples. Inhibitor was prepared at 15× concentration to final. Substrates were diluted in DI water at 18 uM, such that the final concentration on the plate would be 6 uM. All samples were prepared such that their last dilution on the plate would not affect the desired final concentration. 10 ul of each individual sample was pipetted into their corresponding wells, and the plate was then spun down in the centrifuge at 1500 RPM for 30 seconds to coat the bottom of each well with the sample. 5 ul of the 18 uM substrate solution was pipetted into each well being used on a 384 well plate, and then the plate was spun down in the centrifuge at 1500 rpm for 30 seconds. The plate was placed immediately in the plate reader at 37° C. for a 30-minute-long fluorescence kinetic read at 485/535 extended gain.
To assess the proteolytic cleavage pattern of Probe #102, samples were tested using a pool of broad inhibitors for serine, cysteine, threonine, MMP and aspartic protease family members (broad inhibitor) to assess general protease activity, AEBSF for serine proteases, E64 for cysteine proteases, CTSi for broad cathepsin inhibition of cathepsins L, S, K and B, or specific inhibitors for cathepsin K (L00625), for cathepsin L (SID) or cathepsin B (CA074).

[2] = tested on: carboxylesterase 1, phospholipase A2 and lipoprotein lipase; assay: spiked recombinant enzymes in human plasma with resorufin oleate as substrate; assay type: biochemical
caspase activity = assay: ex vivo probe cleavage in plasma of Jo2 fulminant hepatitis mice; assay type: biochemical; conditions: mouse plasma 3 hours after Jo2 injection
Method: Fulminant hepatitis is induced after injection intraperitoneal of monoclonal antibody anti-CD95 (Jo2, BD biosciences, 4 ug/animal), and mouse plasma samples were collected 3 hours after Jo2 injection.

[3] = tested on: host response and SARS-COV2 proteases; assay: probe cleavage in K2 EDTA and Lithium Heparin plasma, COVID vs healthy; assay type: biochemical
[4] = tested on: cathepsin and/or MMP protease activities; assay: probe cleavage in plasma of healthy, NASH regression and NASH progression mice; assay type: biochemical; conditions: K2 EDTA plasma at 20 weeks
Excerpt: Plasma samples were collected from all animals at 20 weeks.
The probes showing the most differentiation in NASH were linked to cathepsin and/or MMP protease activities.

NASH-related proteases = assay: ex vivo fluorescent probe cleavage (RFU/min) in K2 EDTA plasma, NASH (CDAHFD) vs healthy (CD) mice; assay type: biochemical; conditions: n=10 samples and pooled plasma
Method: All animals were used in accordance with animal care guidelines. Plasma was obtained from these blood samples by centrifugation at 3,500 RPM for 20 min at 4° C. The plasma was stored at −80° C. until it was needed for experimental purposes.
Samples were mixed with protease substrates and quenchers/reporters in 96-well plates. The 96-well plates were read on a Biotech Synergy H1, using 465,535 excitation/emission settings.
Probes measuring cathepsin activity were 3-fold higher in protease cleavage kinetics in mice with NASH compared to healthy mice.
A single plasma sample was contacted with the probes for each predetermined protease to provide a multiplex assessment of protease activity in the sample.

Granzyme B = assay: probe cleavage in COVID positive and COVID negative swab samples; assay type: biochemical
[5] = K2 EDTA and Lithium Heparin plasma sets

Compound: NCCc1ccc(S(=O)(=O)F)cc1 [AEBSF]
- decrease of NASH signal ([1]; Probe #102, NASH plasma): 65%
- decrease of healthy signal ([1]; Probe #102, healthy plasma): 60%

Compound: CCCNC(=O)[C@H]1O[C@@H]1C(=O)N[C@H](C(=O)N1CCC[C@H]1C(=O)O)[C@@H](C)CC [CA074]
- effect on Probe #102 signal [1]: did not significantly decrease signal

Compound: CC(C)C[C@H](NC(=O)[C@H]1O[C@@H]1C(=O)O)C(=O)NCCCCN=C(N)N [Probe E64, E64]
- effect on Probe #102 signal [1]: decreased NASH signal significantly

Compound: CN1CCN(c2nc(-c3ccc(C(=O)NC4(C(=O)NCC#N)CCCCC4)cc3)cs2)CC1 [Probe L006235]
- effect on Probe #102 signal [1]: did not significantly decrease signal

Compound: CCCC(=O)O [butyrate]
- suitability as substrate for enzyme detection [2]: promising for detection of broad range of enzymes

Compound: Probe #8: Caspase centric probe (VDVAD; not fully specified; 5-FAM, CPQ2 quencher, PEG2, D-Lys-D-Lys-GC)
- contrast between healthy and Jo2 samples (caspase activity): contrast that is specific and sensitive to the Jo2 model

Compound: Probe #18: a Neutrophil elastase substrate (GAAPVGK; also: 5-FAM, CPQ2 quencher, PEG2-kk-GC, places not given here)
- differential cleavage between COVID and healthy samples [3, 5]: demonstrated contrast in both sets

Compound: Probe #84: a Furin substrate (GRVKRGLAGK; also: 5-FAM, CPQ2 quencher, PEG2-kk-GC, places not given here)
- differential cleavage between COVID and healthy samples [3, 5]: demonstrated contrast in both sets

Compound: Probe #96: probe differentiating healthy, regression and NASH plasma samples ({FAM}-GRPLALWESQG-{K(CPQ2)-PEG2′-dK-Gly-Cys}; not fully specified; printed as (FAM)-GRPLALWESQG-K(CPQ2)-PEG2-k-GC)
- differentiation among healthy, regression and NASH plasma samples [4]: can differentiate

Compound: Probe #102: a CTSL sensing probe; fluorescent reporter and quencher peptide probe (GKPILFFRLKG; also: FAM (position not given here), K(CPQ2) quencher (position not given here), PEG2-kk-GC (attachment not given here))
- protease whose activity the probe responds to ([1]; inhibitor experiments FIG. 30D-F): specifically responds to the activity of cathepsin L (CTSL)
- differentiation among healthy, regression and NASH plasma samples [4]: can differentiate
- what the measured rate of fluorescence increase is ascribed to (NASH-related proteases): can be ascribed to protease activity and to NASH disease

Compound: Probe #409: the SARS CoV2 coronavirus substrate (SARS-COV2 3C protease) (GTSAVLQSGFRKGK; also: 5-FAM, CPQ2 quencher, PEG2-kk-GC, places not given here)
- differential cleavage between COVID and healthy samples ([3]; K2 EDTA samples): modest contrast

Compound: Probe #428: probe differentiating healthy, regression and NASH plasma samples ({FAM}-GDRRKKLTQG-{K(CPQ2)-PEG2′-dK-dK-Gly-Cys}; not fully specified; printed as (FAM)-GDRRKKLTQG-K(CPQ2)-(PEG2)-DLys-DLys-GC)
- differentiation among healthy, regression and NASH plasma samples [4]: can differentiate

Compound: Probe #462: a MMP8 substrate (GKKAKRNALG; also: FAM (position not given here), K(CPQ2) (position not given here), PEG2, D-Lys-D-Lys-GC (attachment not given here))
- differential cleavage between COVID and healthy samples [3, 5]: demonstrated contrast in both sets

Compound: Probe #492: probe whose fluorescence increase is ascribed to protease activity and NASH disease in mice plasma ({FAM}-GQRANSIRVTWG-{K(CPQ2)-PEG2′-dK-dK-Gly-Cys}; not fully specified; printed as (FAM)-GQRANSIRVTWG-K(CPQ2)-(PEG2)-DLys-DLys-GC)
- differentiation among healthy, regression and NASH plasma samples [4]: can differentiate
- what the measured rate of fluorescence increase is ascribed to (NASH-related proteases): can be ascribed to protease activity and to NASH disease

Compound: Probe #520: probe differentiating healthy, regression and NASH plasma samples (GKPISLISSG; not fully specified; 5FAM, K(CPQ2), PEG2-GC)
- differentiation among healthy, regression and NASH plasma samples [4]: can differentiate

Compound: Probe #647: Caspase centric probe; signal measures the activity of protease Granzyme B (GAIEPDSGG; also: 5FAM (position not given here), Lys(CPQ2) (position not given here), PEG2, D-Lys-D-Lys, GC-NH2 (attachment not given here))
- contrast between healthy and Jo2 samples (caspase activity): contrast that is specific and sensitive to the Jo2 model
- differentiation among healthy, regression and NASH plasma samples [4]: can differentiate
- number of active samples, COVID+ (Granzyme B; adjusted RFU across timepoints, COVID+): 7 samples
- number of active samples, COVID- (Granzyme B; adjusted RFU across timepoints, COVID-): 1 samples
- protease whose activity the probe signal measures (Granzyme B; inhibition experiments, healthy vs COVID samples): measures the activity of protease Granzyme B
- differentiation between COVID+ and COVID- samples (Granzyme B; swab samples in saline): key differentiator

Compound: Resorufin oleate
- suitability as substrate for enzyme detection [2]: promising for detection of broad range of enzymes
